Experimental data taken from patent US20200000772A1, “CENICRIVIROC COMBINATION THERAPY FOR THE TREATMENT OF FIBROSIS” (Tobira Therapeutics, Inc., priority 2014, published 2020).

Columns and labels:
[1] = tested on: HIV-1 infected adult subjects; assay: Study 202 biomarkers of inflammation; type: in vivo, human
Protocol: As an exploratory analysis, levels of inflammation biomarkers MCP-1, sCD14, high sensitivity C-reactive protein [hs-CRP], interleukin-6 [IL-6], D-dimer, and fibrinogen) were measured. Baseline values and changes from baseline at Week 24 and Week 48 of MCP-1, sCD14, hs-CRP, IL-6, D-dimer, and fibrinogen are summarized in Table 22.
The sCD14 samples were originally analyzed in 2 separate batches: Batch 1 included samples leading up to the Week 24 primary analysis and Batch 2 included Week 32 and Week 48 (end of study) samples. A repeat analysis of archived samples all analyzed in one batch was conducted for consistency in analysis across time points. To control for the effects of covariates, a linear mixed-model repeated-measures analysis was conducted on the changes from baseline in sCD14 (analysis dated September 2013).

[2] = Tissue distribution in rodents; type: in vivo
Text: Infiltration of various immune cell populations, resulting in inflammation, is a central pathogenic feature following acute- and chronic liver injury. Chronic liver inflammation leads to continuous hepatocyte injury which can lead to fibrosis, cirrhosis, ESLD, and HCC. Interactions between intra-hepatic immune cells lead to increased activation and migration of Kupffer cells and HSCs and are critical events for developing liver fibrosis. Additionally, there is increasing evidence of the role of CCR2 and CCR5 in the pathogenesis of liver fibrosis. These members of the C-C chemokine family are expressed by pro-fibrogenic cells including pro-inflammatory monocytes and macrophages, Kupffer cells, and HSCs. CCR2 signaling plays an important role in the pathogenesis of renal fibrosis through regulation of bone marrow-derived fibroblasts. CCR2- and CCR5-positive monocytes as well as CCR5-positive T lymphocytes are attracted by locally released MCP-1 and RANTES, and can contribute to chronic interstitial inflammation in the kidney. […] Disruption of the intestinal microbiota and its downstream effects on the gut-liver axis both play an important role in metabolic disorders such as obesity, non-alcoholic fatty liver disease (NAFLD) and non-alcoholic steatohepatitis (NASH).

CCR5 = CCR5 (Homo sapiens, UniProt P51681); assay: CCR5 antagonism in in vitro, ex vivo and clinical studies; conditions: ex vivo, Studies 652-2-201 and 652-2-202
[3] = Mouse toxicity studies without surgical procedures; type: in vivo; conditions: CVC doses up to 2000 mg/kg/day
[4] = tested on: adults with CCR5 tropic HIV-1; assay: Study 202 post-hoc APRI and FIB-4 fibrosis index scores; type: in vivo, human
Protocol: APRI and FIB-4 scores were calculated. Change in score category from baseline (BL) to Weeks 24 and 48 was assessed in patients with non-missing data. Correlations between changes from BL in APRI and FIB-4 scores, and MCP-1 (CCR2 ligand) and sCD14 (inflammatory biomarker) levels were evaluated.

[5] = tested on: thioacetamide (TAA)-induced hepatic fibrosis; assay: Rat model of thioacetamide-induced liver fibrosis and cirrhosis; type: in vivo, Sprague-Dawley rats; conditions: first 8 weeks
Protocol: Fibrosis was induced in male Sprague-Dawley rats by intraperitoneal administration of TAA 150 mg/kg 3 times/week for 8 weeks. […] Biochemical, gene expression and histologic evaluations of the liver were conducted.

CCR2 = CCR2 (Homo sapiens, UniProt P41597); assay: CCR2 antagonism in in vitro, ex vivo and clinical studies; conditions: ex vivo, Studies 652-2-201 and 652-2-202
Text: Clinical evidence of CCR2 and CCR5 antagonism was established by measuring changes from baseline in plasma MCP-1 (a ligand of CCR2) concentrations and changes in plasma HIV-RNA (CCR5 co-receptor required for HIV entry), respectively, in these 2 Phase 2 Studies.

Chain of CCR2 (P41597 whole entry): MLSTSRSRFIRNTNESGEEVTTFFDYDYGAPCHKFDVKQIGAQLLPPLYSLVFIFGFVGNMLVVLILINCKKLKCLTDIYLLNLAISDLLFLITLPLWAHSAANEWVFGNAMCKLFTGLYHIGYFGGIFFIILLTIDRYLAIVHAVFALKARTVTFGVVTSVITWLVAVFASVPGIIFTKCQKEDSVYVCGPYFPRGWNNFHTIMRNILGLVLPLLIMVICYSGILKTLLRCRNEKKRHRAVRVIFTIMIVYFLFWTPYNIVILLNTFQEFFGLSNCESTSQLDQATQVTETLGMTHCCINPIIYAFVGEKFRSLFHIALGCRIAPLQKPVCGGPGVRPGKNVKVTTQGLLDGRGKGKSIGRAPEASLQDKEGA
Chain of CCR5 (P51681 whole entry): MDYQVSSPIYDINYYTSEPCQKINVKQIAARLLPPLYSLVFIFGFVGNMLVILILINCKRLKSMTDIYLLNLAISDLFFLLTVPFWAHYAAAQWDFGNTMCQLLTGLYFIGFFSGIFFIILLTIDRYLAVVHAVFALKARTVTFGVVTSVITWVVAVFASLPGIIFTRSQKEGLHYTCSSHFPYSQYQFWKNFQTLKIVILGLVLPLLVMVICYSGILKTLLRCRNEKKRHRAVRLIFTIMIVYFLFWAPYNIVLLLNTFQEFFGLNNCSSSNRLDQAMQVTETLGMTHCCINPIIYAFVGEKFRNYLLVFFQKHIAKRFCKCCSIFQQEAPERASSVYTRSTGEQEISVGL

Compound: CCCCOCCOc1ccc(-c2ccc3c(c2)/C=C(/C(=O)Nc2ccc([S@@+]([O-])Cc4cncn4CCC)cc2)CCCN3CC(C)C)cc1 [CVC, (S)-8-[4-(2-Butoxyethoxy)phenyl]-1-isobutyl-N-(4-{[(1-propyl-1H-imidazol-5-yl)methyl]sulfinyl}phenyl)-1,2,3,4-tetrahydro-1-benzazocine-5-carboxamide]
- D-dimer Changes from baseline at Week 24, Mean ([1]; CVC 100 mg): -32 ng/mL
- D-dimer Changes from baseline at Week 24, Median ([1]; CVC 100 mg): -1.0 ng/mL
- D-dimer Changes from baseline at Week 48, Mean ([1]; CVC 100 mg): -41 ng/mL
- D-dimer Changes from baseline at Week 48, Median ([1]; CVC 100 mg): -1.0 ng/mL
- Fibrinogen Changes from baseline at Week 24, Mean ([1]; CVC 100 mg): -3 mg/dL
- Fibrinogen Changes from baseline at Week 24, Median ([1]; CVC 100 mg): -14 mg/dL
- Fibrinogen Changes from baseline at Week 48, Mean ([1]; CVC 100 mg): 11 mg/dL
- Fibrinogen Changes from baseline at Week 48, Median ([1]; CVC 100 mg): 15 mg/dL
- IL-6 Changes from baseline at Week 24, Mean ([1]; CVC 100 mg): 0.42 pg/mL
- IL-6 Changes from baseline at Week 24, Median ([1]; CVC 100 mg): 0.00 pg/mL
- IL-6 Changes from baseline at Week 48, Mean ([1]; CVC 100 mg): 0.29 pg/mL
- IL-6 Changes from baseline at Week 48, Median ([1]; CVC 100 mg): 0.00 pg/mL
- MCP-1 Changes from baseline at Week 24, Mean ([1]; CVC 100 mg): 493 pg/mL
- MCP-1 Changes from baseline at Week 24, Median ([1]; CVC 100 mg): 429 pg/mL
- MCP-1 Changes from baseline at Week 48, Mean ([1]; CVC 100 mg): 636 pg/mL
- MCP-1 Changes from baseline at Week 48, Median ([1]; CVC 100 mg): 523 pg/mL
- hs-CRP Changes from baseline at Week 24, Mean ([1]; CVC 100 mg): -0.16 mg/dL
- hs-CRP Changes from baseline at Week 24, Median ([1]; CVC 100 mg): -0.03 mg/dL
- hs-CRP Changes from baseline at Week 48, Mean ([1]; CVC 100 mg): -0.08 mg/dL
- hs-CRP Changes from baseline at Week 48, Median ([1]; CVC 100 mg): -0.01 mg/dL
- plasma MCP-1 over time ([1]; CVC 100 mg and 200 mg, EFV, up to Week 48): dose-response was observed with CVC in increases over time
- sCD14 Changes from baseline Week 32, Mean ([1]; CVC 100 mg, original values): 110000 pg/mL
- sCD14 Changes from baseline Week 32, Median ([1]; CVC 100 mg, original values): 120000 pg/mL
- sCD14 Changes from baseline at Week 12, Mean ([1]; CVC 100 mg, original values): -140000 pg/mL
- sCD14 Changes from baseline at Week 12, Median ([1]; CVC 100 mg, original values): -160000 pg/mL
- sCD14 Changes from baseline at Week 24, Mean ([1]; CVC 100 mg, original values): -190000 pg/mL
- sCD14 Changes from baseline at Week 24, Median ([1]; CVC 100 mg, original values): -180000 pg/mL
- sCD14 Changes from baseline at Week 48, Mean ([1]; CVC 100 mg, original values): 100000 pg/mL
- sCD14 Changes from baseline at Week 48, Median ([1]; CVC 100 mg, original values): 100000 pg/mL
- D-dimer Changes from baseline at Week 24, Mean ([1]; CVC 200 mg): -64 ng/mL
- D-dimer Changes from baseline at Week 24, Median ([1]; CVC 200 mg): -50 ng/mL
- D-dimer Changes from baseline at Week 48, Mean ([1]; CVC 200 mg): -70 ng/mL
- D-dimer Changes from baseline at Week 48, Median ([1]; CVC 200 mg): -50 ng/mL
- Fibrinogen Changes from baseline at Week 24, Mean ([1]; CVC 200 mg): -7 mg/dL
- Fibrinogen Changes from baseline at Week 24, Median ([1]; CVC 200 mg): -8 mg/dL
- Fibrinogen Changes from baseline at Week 48, Mean ([1]; CVC 200 mg): -10 mg/dL
- Fibrinogen Changes from baseline at Week 48, Median ([1]; CVC 200 mg): -13 mg/dL
- IL-6 Changes from baseline at Week 24, Mean ([1]; CVC 200 mg): 0.81 pg/mL
- IL-6 Changes from baseline at Week 24, Median ([1]; CVC 200 mg): 0.00 pg/mL
- IL-6 Changes from baseline at Week 48, Mean ([1]; CVC 200 mg): -0.04 pg/mL
- IL-6 Changes from baseline at Week 48, Median ([1]; CVC 200 mg): 0.00 pg/mL
- MCP-1 Changes from baseline at Week 24, Mean ([1]; CVC 200 mg): 753 pg/mL
- MCP-1 Changes from baseline at Week 24, Median ([1]; CVC 200 mg): 695 pg/mL
- MCP-1 Changes from baseline at Week 48, Mean ([1]; CVC 200 mg): 900 pg/mL
- MCP-1 Changes from baseline at Week 48, Median ([1]; CVC 200 mg): 756 pg/mL
- hs-CRP Changes from baseline at Week 24, Mean ([1]; CVC 200 mg): -0.07 mg/dL
- hs-CRP Changes from baseline at Week 24, Median ([1]; CVC 200 mg): -0.04 mg/dL
- hs-CRP Changes from baseline at Week 48, Mean ([1]; CVC 200 mg): -0.18 mg/dL
- hs-CRP Changes from baseline at Week 48, Median ([1]; CVC 200 mg): -0.04 mg/dL
- sCD14 Changes from baseline Week 32, Mean ([1]; CVC 200 mg, original values): 20000 pg/mL
- sCD14 Changes from baseline Week 32, Median ([1]; CVC 200 mg, original values): -20000 pg/mL
- sCD14 Changes from baseline at Week 12, Median ([1]; CVC 200 mg, original values): -210000 pg/mL
- sCD14 Changes from baseline at Week 24, Mean ([1]; CVC 200 mg, original values): -230000 pg/mL
- sCD14 Changes from baseline at Week 24, Median ([1]; CVC 200 mg, original values): -190000 pg/mL
- sCD14 Changes from baseline at Week 48, Mean ([1]; CVC 200 mg, original values): -40000 pg/mL
- sCD14 Changes from baseline at Week 48, Median ([1]; CVC 200 mg, original values): -40000 pg/mL
- sCD14 over 48 weeks of treatment (linear mixed-model analysis of repeat sCD14 analysis) ([1]; both CVC treatment arms, EFV arm): decrease
- tissue distribution [2]: high distribution in the liver, mesenteric lymph node, and intestine
- antagonism of CCR5 (CCR5): potent and concentration-dependent antagonism
- tolerability [3]: well tolerated
- subjects with APRI 0.5-1.5 ([4]; Baseline): 14%
- subjects with APRI <0.5 ([4]; Baseline): 84%
- subjects with APRI >1.5 ([4]; Baseline): 2%
- subjects with FIB-4 1.45-3.25 ([4]; Baseline): 17%
- subjects with FIB-4 <1.45 ([4]; Baseline): 82%
- subjects with FIB-4 >3.25 ([4]; Baseline): 1%
- subjects with APRI 0.5-1.5 ([4]; Week 24): 7%
- subjects with APRI <0.5 ([4]; Week 24): 93%
- subjects with APRI decreased 1 category from baseline ([4]; Week 24): 14%
- subjects with FIB-4 1.45-3.25 ([4]; Week 24): 7%
- subjects with FIB-4 <1.45 ([4]; Week 24): 93%
- subjects with FIB-4 decreased 1 category from baseline ([4]; Week 24): 13%
- subjects with APRI 0.5-1.5 ([4]; Week 48): 8%
- subjects with APRI <0.5 ([4]; Week 48): 91%
- subjects with APRI >1.5 ([4]; Week 48): 1%
- subjects with APRI decreased 1 category from baseline ([4]; Week 48): 10%
- subjects with FIB-4 1.45-3.25 ([4]; Week 48): 5%
- subjects with FIB-4 <1.45 ([4]; Week 48): 94%
- subjects with FIB-4 >3.25 ([4]; Week 48): 1%
- subjects with FIB-4 decreased 1 category from baseline ([4]; Week 48): 14%
- subjects with improvements in APRI and FIB-4 scores over time ([4]; pooled data for CVC 100 mg and 200 mg): ≥ 10%
- reduction of fibrosis by collagen morphometry ([5]; Group 1a: CVC 30 mg/kg/day concurrently with TAA): 49%
- reduction of fibrosis by collagen morphometry ([5]; Group 1b: CVC 100 mg/kg/day concurrently with TAA): 38%
- antagonism of CCR2 (CCR2): potent and concentration-dependent antagonism
